Data published in paper PMC6321136, “Combined In Vitro Studies and in Silico Target Fishing for the Evaluation of the Biological Activities of Diphylleia cymosa and Podophyllum hexandrum” (Molecules, 2018).
Values after ≈ are worked out from the molar mass of the structure shown.

Tests used:
[1] = target: T1, acetylcholinesterase enzyme (Electropardus electricous type VI-S) (Electrophorus electricus, UniProt O42275); assay: AChE bioautographic assay (TLC); type: biochemical; parameters: key: -: not active; +: slight inhibition; ++++: strong inhibition; conditions: intensity of white bands
T1 construct: purchased Sigma-Aldrich, St. Louis, MO, USA type VI-S (catalogue number not given)
Experimental: The bioautographic assay was performed by thin layer chromatography (TLC) according to the method proposed by Marston, Kissling and Hostettman. The extracts were solubilized in methanol (Merck) at 20 mg/mL, and a portion of 10 μL of this solution was applied on a TLC plate (silica gel 60 F254, Merck, Darmstadt, Germany), which was eluted with CHCl3:MeOH (9:1). The acetylcholinesterase enzyme (Electropardus electricous type VI-S, Sigma-Aldrich, St. Louis, MO, USA) solution was prepared by diluting 1 KU of the enzyme in 30 mL of Tris/HCl buffer, pH 7.8, with the addition of 30 mg of bovine serum albumin (BSA). The enzyme solution was sprayed on the TLC plate and incubated in a humid chamber at 37 °C for 20 min. The substrate solution was prepared using 1-naphthyl acetate (2.5 mg/mL) and Fast Blue B salt (2.5 mg/mL), and sprayed on the TLC plate after the incubation period. […] The result was expressed by the intensity of the white bands observed.

[2] = target: T2, AChE from Electropardus electricous type VI-S (Electrophorus electricus, UniProt O42275); assay: AChE inhibition microplate assay (Ellman); type: biochemical; conditions: 400 μg/mL; read-out: Inhibition of AChE Microplate (%I)
T2 construct: purchased Sigma-Aldrich, St. Louis, MO, USA type VI-S (catalogue number not given)
Experimental: AChE inhibition assay was performed on a 96-well microplate according to Ellman’s method with adaptations. Initially, the extracts were solubilized on MeOH, at 20 mg/mL, and diluted to 4 mg/mL using Tris/HCl buffer solution (50 mM, pH 8.0). A portion of 25 µL of the samples (4 mg/mL) were added to the wells of the microplate, as well as 50 μL of 0.1% BSA solution in Tris/HCl Buffe (pH 8.0), 125 μL of DTNB in Tris/HCl (3 mM) containing NaCl (10 mM) and MgCl2 (20 mM). Subsequently, 25 μL of the ATCI aqueous solution (15 mM) was added to all wells. Then, a background reading was performed at 405 nm using microplate reader (Multiskan Go, Thermo Scientific, Whaltham, MA, USA). The enzymatic reaction was initiated after the addition of 25 µL of AChE solution (AChE from Electropardus electricous type VI-S, 0.2 U/mL, Sigma-Aldrich, St. Louis, MO, USA) in Tris/HCl buffer (50 mM, pH 8.0) containing 0.1% BSA. The kinetic cycle was performed in a period of 25 min, with readings at 5 min intervals, at 405 nm. Physostigmine (Eserine, Sigma, St. Louis, MO, USA) was employed as the positive control. […] The assay was performed in triplicate and the % of inhibition (%I) was calculated according to the following equation: %I = [(a − b)/a] × 100, where a = ΔA/min of control; b = ΔA/min of test sample; ΔA = change in absorbance between time x and time zero. […]

[3] = Thiobarbituric acid reactive substances (TBARS) assay; parameters: species or system bovine
Experimental: The evaluation of antioxidant activity using the TBARS assay, with adaptations. Briefly, the samples were solubilized in methanol (50.0 to 31.25 μg/mL) and a portion of 25 μL of each extract solution was added to 10 mL test tubes in triplicate (two reaction tubes and one control). The tubes corresponding to the blank, negative and positive controls were prepared by adding 25 μL of deionized water, MeOH or propylgalate (Sigma, St. Louis, MO, USA, 0.1 mM), respectively. The phospholipid liposomes were prepared using bovine brain extract type VII (Sigma Aldrich, St. Louis, MO, USA, 10 mg/mL) in phosphate buffered saline (PBS) solution. The suspension was subjected to an ultrasonic bath until the formation of the liposomes. […] The butanolic phase was removed and transferred to a 96-well microplate, and the absorbance was recorded on a Multiskan Go microplate reader (Thermo Scientific, Whaltham, MA, USA) at 532 nm. The percentage of inhibition (%I) of lipid peroxidation was calculated as: %I = ((AC − AS)/AC) × 100 where AC is the absorbance of control, AS is the absorbance of samples. Assays were performed in triplicate and IC50 values were determined by non-linear regression using GraphPad Prism, version 6.0 (GraphPad Software, San Diego, CA, USA). […]

[4] = DPPH radical scavenger activity
Experimental: The evaluation of the antioxidant activity using the 2,2-diphenyl-1-picrylhydrazyl radical (DPPH) was performed according to the method proposed by Mensor et al., with adaptations. The samples were dissolved in MeOH at concentrations ranging from 1.0 to 200 μg/mL. A portion of 250 μL of each sample was added to a 96-well microplate. MeOH and pyrogallol (50 µg/mL) were employed as negative and positive controls, respectively. Then, 100 μL of either MeOH (blank wells) or DPPH solution (120 μg/mL, reaction wells) was added to the microplate. The reading was performed on a microplate reader (EL808IU-Biotek model, Biotek, Winooski, VT, USA), at 5 min intervals for a total of 45 min, at 515 nm. The percentage of radical scavenging activity (%RSA) was calculated using the following equation: % RSA = ((AC − AS)/AC) × 100, where AC is the absorbance of control and AS is the absorbance of samples taken at 35 min. The results were expressed in EC50 (effective concentration for 50% capture of the radicals) determined by non-linear regression using GraphPad Prism, version 6.0.

[5] = β-Carotene/linoleic acid co-oxidation assay
Experimental: The evaluation of the antioxidant activity using the β-carotene/linoleic acid co-oxidation system was performed according to Duarte-Almeida et al., with adaptations. The extracts were solubilized in MeOH (2.2 mg/mL) and further diluted to concentrations ranging from 3.125 to 200 μg/mL. An aliquot of 25 μL of sample solutions were added in the 96-well microplate. 25 mg of linoleic acid and 100 mg Tween 20 (Sigma, St. Louis, MO, USA) were added to a round-bottom flask containing 1 mL of a β-carotene solution (1 mg/mL, Sigma, St. Louis, MO, USA) in chloroform. The latter was removed in a rotatory evaporator and, then, 50 mL of aerated water was added to the flask, affording the β-carotene emulsion. Portions of 250 μL of the freshly prepared emulsion were added to the wells corresponding to the odd columns of a microplate. […] Readings were performed immediately at 470 nm. After the first reading, the microplate was incubated at 45 °C and the kinetic cycle was performed with readings at 15 min intervals for a total of 120 min. The antioxidant activity was expressed as % of inhibition of lipid peroxidation (%I), using the formula (I% = Ac (initial abs − Final abs) − Aam (final abs − Initial abs)/Ac × 100). Assays were performed in triplicate and IC50 values were determined by non-linear regression using GraphPad Prism, version 6.0 (GraphPad Software, San Diego, CA, USA).

AChE [6] = test system: AChE; parameters: method as in Itoh et al. [85]; conditions: 3 mg/kg; ref Itoh et al. [85]; cited from earlier work
AChE [7] = test system: AChE; parameters: method as in El-Hassan et al. [86]; conditions: ref El-Hassan et al. [86]; cited from earlier work

T1 sequence (O42275 24-633): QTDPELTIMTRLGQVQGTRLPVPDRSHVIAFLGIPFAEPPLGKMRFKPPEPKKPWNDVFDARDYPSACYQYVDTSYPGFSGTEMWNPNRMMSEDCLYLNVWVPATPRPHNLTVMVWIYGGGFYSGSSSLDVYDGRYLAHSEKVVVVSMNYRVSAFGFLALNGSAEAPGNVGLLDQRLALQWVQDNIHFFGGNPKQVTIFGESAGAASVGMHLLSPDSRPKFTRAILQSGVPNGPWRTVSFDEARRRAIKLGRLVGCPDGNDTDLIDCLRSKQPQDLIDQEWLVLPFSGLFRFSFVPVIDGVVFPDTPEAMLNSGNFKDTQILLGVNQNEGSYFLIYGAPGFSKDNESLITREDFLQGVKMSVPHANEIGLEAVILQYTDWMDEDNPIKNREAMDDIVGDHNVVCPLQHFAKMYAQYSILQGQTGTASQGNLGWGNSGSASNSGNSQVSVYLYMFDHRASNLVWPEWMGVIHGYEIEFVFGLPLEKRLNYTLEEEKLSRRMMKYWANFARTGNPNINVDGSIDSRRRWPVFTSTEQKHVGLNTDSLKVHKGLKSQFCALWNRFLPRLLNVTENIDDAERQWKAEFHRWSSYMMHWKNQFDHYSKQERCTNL
T2 sequence (O42275 24-633): as above

SMILES: CNC(=O)Oc1ccc2c(c1)[C@]1(C)CCN(C)[C@@H]1N2C [Physostigmine, reference compound]
- Inhibition of AChE TLC [1]: ++++
- inhibition at 400 µg/mL [2]: 89.8 ± 1.16%

SMILES: CCCOC(=O)c1cc(O)c(O)c(O)c1 [Propylgalate, propylgalate, reference compound]
- Antioxidant Activity (IC50-µg/mL) TBARS Assay [3]: <20 µg/mL

SMILES: Oc1cccc(O)c1O [Pyrogallol, pyrogallol, reference compound]
- Antioxidant Activity (IC50-µg/mL) DPPH Radical Sequestration [4]: 1.14 ± 0.15 µg/mL

SMILES: O=c1c(O)c(-c2ccc(O)c(O)c2)oc2cc(O)cc(O)c12 [Quercetin, quercetin, reference compound]
- Antioxidant Activity (IC50-µg/mL) β-Carotene/linoleic Acid [5]: 0.3 ± 0.1 µg/mL

SMILES: COc1cc2c(c(OC)c1OC)-c1c(cc(OC)c(OC)c1OC)C[C@](C)(O)[C@@H](C)C2 [Schisandrin]
- activity in vivo (AChE [6]): active

SMILES: COc1cc([C@H]2OC[C@H]3[C@@H]2CO[C@@H]3c2cc(OC)c(O)c(OC)c2)cc(OC)c1O [Syringaresinol]
- IC50 AChE inhibition in vitro (AChE [7]): 200 µg/mL (≈ 478 µM)
